Entries after “also recorded” stand apart in the source; their conditions may differ. Like-named read-outs stand apart in the source and are kept apart here. Blank lines part the entries; values can stand above or below the compound they belong to.
Key:
[1] = target: human KV1.3 voltage gated K+ channel (Homo sapiens, UniProt P22001); experiment: KV1.3 thallium influx assay in KV1.3 stably transfected CHO DUKX cells; conditions: for KV 1.3 IC50 / KV 1.3 Efficacy (inhibition of thallium influx as a % of positive control): thallium influx in KV1.3 cells; for KV 1.3 IC50: mean ± SD from two to three experiments; for Selectivity Fold (hERG over KV1.3): potency difference KV1.3 IC50 / hERG IC50, thallium influx assays; for KV 1.3 Efficacy (inhibition of thallium influx as a % of positive control): relative to 1 μM psoralen
hERG channel [2] = target: T1, hERG channel (Homo sapiens, UniProt Q12809); experiment: Automated whole cell patch clamp, hERG tail current in hERG CHO-K1 cells
hERG channel [3] = target: T1, hERG channel; experiment: FluxOR thallium influx assay in hERG transduced U-2 OS cells; conditions: for Confirmation Efficacy (inhibition of thallium influx as a % of positive control): confirmation study, hERG transduced cells, mean ± SD of three experiments; for IC50 in the thallium influx assay (QAC series follow-up): quaternary ammonium compound series and digitonin control, hERG cells
hERG channel [4] = target: T1, hERG channel
wild type U-2 OS cells = experiment: FluxOR thallium influx assay in wild type; type: cell-based, human; conditions: non-hERG transduced cells
hERG channel [5] = target: T1, hERG channel; remark: listed apart in the source
in vitro = type: cell-based, human; conditions: human, hERG transduced U-2 OS cells
[6] = test system: hERG transduced U-2 OS cells; experiment: in vitro; type: cell-based, human; conditions: for IC50: read-out: Cytotoxicity IC50 (cell viability, intracellular ATP content), up to 92 μM
KV1.3 versus hERG [7] = target: T2, KV1.3 versus hERG (Homo sapiens, UniProt P22001); experiment: KV1.3 thallium influx assay in KV1.3 stably transfected CHO DUKX cells; conditions: human
KV1.3 versus hERG [8] = target: T2, KV1.3 versus hERG; experiment: in vitro
[9] = automated whole cell patch clamp, hERG tail current, hERG CHO-K1 cells, room temperature
[10] = 30-minute treatment, hERG transduced U-2 OS cells
[11] = read-out: Patch clamp IC50, automated whole cell patch clamp, hERG tail current, hERG CHO-K1 cells, room temperature

human KV1.3 voltage gated K+ channel, sequence (P22001 whole entry): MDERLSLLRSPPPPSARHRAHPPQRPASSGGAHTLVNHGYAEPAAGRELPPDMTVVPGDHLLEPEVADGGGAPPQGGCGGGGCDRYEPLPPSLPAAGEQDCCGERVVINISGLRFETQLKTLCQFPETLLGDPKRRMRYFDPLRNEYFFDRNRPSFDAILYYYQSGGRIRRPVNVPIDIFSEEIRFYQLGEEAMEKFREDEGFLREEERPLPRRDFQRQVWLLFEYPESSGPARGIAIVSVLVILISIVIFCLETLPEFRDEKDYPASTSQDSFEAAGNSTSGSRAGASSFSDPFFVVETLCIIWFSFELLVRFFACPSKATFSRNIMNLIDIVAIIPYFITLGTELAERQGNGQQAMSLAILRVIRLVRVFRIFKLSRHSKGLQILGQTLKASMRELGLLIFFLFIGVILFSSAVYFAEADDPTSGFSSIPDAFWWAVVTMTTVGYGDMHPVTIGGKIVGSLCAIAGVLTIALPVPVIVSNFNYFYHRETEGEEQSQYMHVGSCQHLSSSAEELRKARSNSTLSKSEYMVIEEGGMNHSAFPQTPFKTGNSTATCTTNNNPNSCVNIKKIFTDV
T2 sequence (P22001 whole entry): as above
T1 sequence (Q12809 whole entry): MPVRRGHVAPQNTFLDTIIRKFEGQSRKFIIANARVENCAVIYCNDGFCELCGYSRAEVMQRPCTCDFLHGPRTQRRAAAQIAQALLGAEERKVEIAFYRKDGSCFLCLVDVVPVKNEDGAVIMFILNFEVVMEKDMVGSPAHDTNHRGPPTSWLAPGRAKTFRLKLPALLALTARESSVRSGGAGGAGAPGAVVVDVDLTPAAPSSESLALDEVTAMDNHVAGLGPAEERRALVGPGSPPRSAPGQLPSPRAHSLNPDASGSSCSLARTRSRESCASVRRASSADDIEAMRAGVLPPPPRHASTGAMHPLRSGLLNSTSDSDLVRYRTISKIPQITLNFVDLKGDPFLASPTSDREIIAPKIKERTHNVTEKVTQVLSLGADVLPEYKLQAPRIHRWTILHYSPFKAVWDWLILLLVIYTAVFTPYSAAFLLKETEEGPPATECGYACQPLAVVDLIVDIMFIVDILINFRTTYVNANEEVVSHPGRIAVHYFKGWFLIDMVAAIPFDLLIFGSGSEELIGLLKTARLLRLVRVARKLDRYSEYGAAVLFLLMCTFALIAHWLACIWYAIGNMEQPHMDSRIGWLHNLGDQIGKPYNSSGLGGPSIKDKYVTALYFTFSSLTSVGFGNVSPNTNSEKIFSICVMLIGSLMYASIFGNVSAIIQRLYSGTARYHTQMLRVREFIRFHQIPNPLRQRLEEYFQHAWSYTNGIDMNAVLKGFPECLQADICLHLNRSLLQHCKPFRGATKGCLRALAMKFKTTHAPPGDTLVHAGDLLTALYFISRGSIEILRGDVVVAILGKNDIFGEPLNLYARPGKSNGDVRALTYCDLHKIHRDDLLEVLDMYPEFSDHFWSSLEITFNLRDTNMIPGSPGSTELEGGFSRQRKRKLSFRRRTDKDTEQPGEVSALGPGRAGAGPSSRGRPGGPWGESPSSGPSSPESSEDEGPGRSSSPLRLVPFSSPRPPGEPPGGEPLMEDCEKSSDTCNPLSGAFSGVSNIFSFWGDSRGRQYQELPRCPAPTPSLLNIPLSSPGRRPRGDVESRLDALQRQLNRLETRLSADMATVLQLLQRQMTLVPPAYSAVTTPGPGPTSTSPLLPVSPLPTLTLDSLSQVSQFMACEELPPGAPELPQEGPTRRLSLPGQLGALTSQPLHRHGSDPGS

Compound: N=C(Nc1ccccc1)Nc1ccccc1 [1,3-diphenylguanidine]
KV 1.3 IC50 [1]: Inactive

Compound: Nc1ccc2cc3ccccc3cc2c1 [2-aminoanthracene]
IC50 (hERG channel [2]): > 100 µM
Confirmation Efficacy (inhibition of thallium influx as a % of positive control) (hERG channel [3]): 67 ± 19%
qHTS (two runs) Efficacy (inhibition of thallium influx as a % of positive control) (hERG channel [4]; human): 61 ± 3%
Inhibition of thallium influx in parental (wild type) cells (wild type U-2 OS cells): inhibitory effect

Compound: CCCCCCc1ccc(-c2ccc(C#N)cc2)cc1 [4-N-hexyl-4′-cyanobiphenyl, 4′-N-hexyl-4-biphenylcarbonitrile]
Confirmation IC50 (thallium influx, hERG) (hERG channel [4]): Inactive
IC50 (hERG channel [4]): 8.2 ± 2.6 µM

Compound: O=C([O-])c1c(Cl)c(Cl)c(Cl)c(Cl)c1-c1c2cc(Br)c(=O)c(Br)c-2oc2c(Br)c([O-])c(Br)cc12.[Na+].[Na+] [D&C red dye 27]
IC50 (hERG channel [5]): > 100 µM
Confirmation Efficacy (inhibition of thallium influx as a % of positive control) (hERG channel [4]): 173 ± 41%
Inhibition of thallium influx in parental (wild type) cells (wild type U-2 OS cells): inhibitory effect

Compound: C[N+](C)(C)Cc1ccccc1 [benzyltrimethylammonium chloride]
Patch clamp IC50 (hERG channel [2]; [9]): inactive
IC50 in the thallium influx assay (QAC series follow-up) (hERG channel [3]): inactive

Compound: C[N+](C)(C)CCCCCCCCCC[N+](C)(C)C [decamethonium dibromide]
Patch clamp IC50 (hERG channel [2]; [9]): inactive
IC50 in the thallium influx assay (QAC series follow-up) (hERG channel [3]): inactive

Compound: C[C@@H]1CC[C@@]2(OC1)O[C@H]1[C@@H](O)[C@H]3[C@@H]4CC[C@H]5C[C@@H](O[C@@H]6O[C@H](CO)[C@H](O[C@@H]7O[C@H](CO)[C@@H](O)[C@H](O[C@@H]8OC[C@@H](O)[C@H](O)[C@H]8O)[C@H]7O[C@@H]7O[C@H](CO)[C@H](O)[C@H](O[C@@H]8O[C@H](CO)[C@@H](O)[C@H](O)[C@H]8O)[C@H]7O)[C@H](O)[C@H]6O)[C@H](O)C[C@]5(C)[C@H]4CC[C@]3(C)[C@H]1[C@@H]2C [digitonin, reference compound]
Inhibitory effect on hERG channel activity in the patch clamp experiment (hERG channel [2]; at 1 μM (the highest noncytotoxic concentration)): no inhibitory effect

IC50 [1]: 5.2 ± 0.6 µM
KV 1.3 Efficacy (inhibition of thallium influx as a % of positive control) [1]: 102 ± 22%
Compound: CCCCCCCCCCCC[N+](C)(C)CCOc1ccccc1 [domiphen bromide]
IC50 at 30 min (in vitro): 65 µM
Maximum inhibition of cell viability [6, 10]: 33%
IC50 (hERG channel [2]): 1.5 µM
Selectivity Fold (hERG over KV1.3) [1]: no selectivity
selectivity ratio at 2 min (KV1.3 versus hERG [7]): 1.2

IC50 [1]: 30 ± 2 µM
KV 1.3 Efficacy (inhibition of thallium influx as a % of positive control) [1]: 104 ± 10%
Compound: Clc1ccc(COC(Cn2ccnc2)c2ccc(Cl)cc2Cl)cc1 (stereo not drawn) [econazole nitrate, reference compound]

Compound: CN(C)c1ccc(C(=C2C=CC(=[N+](C)C)C=C2)c2ccccc2)cc1.CN(C)c1ccc(C(=C2C=CC(=[N+](C)C)C=C2)c2ccccc2)cc1.O=C(O)C(=O)O.O=C([O-])C(=O)O.O=C([O-])C(=O)O [malachite green oxalate]
Maximum inhibition of cell viability [6]: 72%
IC50 [6, 10]: 31 µM
IC50 (hERG channel [2]; [11]): 1.9 µM
Selectivity Fold (hERG over KV1.3) [1]: 6.5 fold
KV 1.3 IC50 [1]: either IC50 values >30 μM or were inactive
KV 1.3 Efficacy (inhibition of thallium influx as a % of positive control) [1]: 89%
Confirmation Efficacy (inhibition of thallium influx as a % of positive control) (hERG channel [3]): 108 ± 7%
qHTS (two runs) Efficacy (inhibition of thallium influx as a % of positive control) (hERG channel [4]): 97 ± 3%

Compound: Clc1ccc(C(c2ccccc2Cl)C(Cl)(Cl)Cl)cc1 (stereo not drawn) [o,p′-DDT, 1,1,1-trichloro-2-(2-chlorophenyl)-2-(4-chlorophenyl)ethane]
selectivity ratio (KV1.3 versus hERG [8]): 1.6
IC50 (hERG channel [2]): 2.6 µM
IC50 [1]: 35 µM
Selectivity Fold (hERG over KV1.3) [1]: no selectivity
KV 1.3 IC50 [1]: either IC50 values >30 μM or were inactive
KV 1.3 Efficacy (inhibition of thallium influx as a % of positive control) [1]: 61%
Confirmation Efficacy (inhibition of thallium influx as a % of positive control) (hERG channel [3]): 58 ± 8%
qHTS (two runs) Efficacy (inhibition of thallium influx as a % of positive control) (hERG channel [4]; human): 56 ± 2%

Compound: C=C[C@H]1C[N@@]2CC[C@H]1C[C@@H]2[C@@H](O)c1ccnc2ccc(OC)cc12 [quinidine, reference compound]
KV 1.3 IC50 [1]: either IC50 values >30 μM or were inactive; also recorded: Inactive

Compound: COC(=O)[C@H]1[C@H]2C[C@@H]3c4[nH]c5cc(OC)ccc5c4CCN3C[C@H]2C[C@@H](OC(=O)c2cc(OC)c(OC)c(OC)c2)[C@@H]1OC [reserpine, reference compound]
IC50 (hERG channel [2]): 1.9 µM
IC50 [1]: 58 ± 18 µM
KV 1.3 IC50 [1]: either IC50 values >30 μM or were inactive
KV 1.3 Efficacy (inhibition of thallium influx as a % of positive control) [1]: 78 ± 7%
selectivity ratio at 2 min (KV1.3 versus hERG [7]): 11.8
IC50 (hERG channel [3]; Confirmation IC50 (thallium influx, hERG)): 4.9 ± 1.7 µM
IC50 (hERG channel [3]; qHTS (two runs) IC50): 7.5 ± 3.5 µM

Compound: CCCCCCCC[N+](CCCCCCCC)(CCCCCCCC)CCCCCCCC.[Br-] [tetra-n-octylammonium bromide]
Maximum inhibition of cell viability [6, 10]: 50%
IC50 [6, 10]: 34 µM
IC50 (hERG channel [2]; read-out: IC50 in the patch clamp assay, as stated in abstract): 0.08 µM
IC50 (hERG channel [2]; [11]): 0.082 µM
Selectivity Fold (hERG over KV1.3) [1]: 42 fold
KV 1.3 Efficacy (inhibition of thallium influx as a % of positive control) [1]: 72 ± 16%
Confirmation Efficacy (inhibition of thallium influx as a % of positive control) (hERG channel [3]): 100 ± 3%
qHTS (two runs) Efficacy (inhibition of thallium influx as a % of positive control) (hERG channel [4]): 102 ± 4%

Compound: COc1ccc(CCN(C)CCCC(C#N)(c2ccc(OC)c(OC)c2)C(C)C)cc1OC (stereo not drawn) [verapamil, reference compound]
KV 1.3 Efficacy (inhibition of thallium influx as a % of positive control) [1]: 88 ± 12%

Compound: tricresyl phosphate
IC50 (hERG channel [2]; [11]): 8.8 µM
Selectivity Fold (hERG over KV1.3) [1]: 2.7 fold
KV 1.3 Efficacy (inhibition of thallium influx as a % of positive control) [1]: 68 ± 17%
Confirmation Efficacy (inhibition of thallium influx as a % of positive control) (hERG channel [3]): 68 ± 16%
qHTS (two runs) Efficacy (inhibition of thallium influx as a % of positive control) (hERG channel [4]): 82 ± 11%

Compound: trixylenyl phosphate
Patch clamp IC50 (hERG channel [2]; [9]): did not inhibit hERG channel activity
IC50 (hERG channel [2]; [11]): > 100 µM
Confirmation Efficacy (inhibition of thallium influx as a % of positive control) (hERG channel [3]): 43 ± 15%
qHTS (two runs) Efficacy (inhibition of thallium influx as a % of positive control) (hERG channel [4]): 67 ± 12%
